Measured values: patent US20100183613A1, “METHODS OF USING MEVALONATE DECARBOXYLASE (MVD) ANTAGONISTS” (NOVARTIS AG, priority 2008, published 2010)
Entries after “also recorded” stand apart in the source; their conditions may differ. Like-named read-outs stand apart in the source and are kept apart here.

Key:
Dengue NGC virus [1] = test: Dengue NGC live virus infection in K562 cells, FACS (anti-E/anti-NS1 double positive cells); assay type: cell-based; conditions: for EC50: read-out: EC50 (effective concentration of 50% inhibition of virus growth); for inhibition of viral growth / effect on infection: K562 infection assay; for percent Dengue positive cells (E and NS1 double positive): K562, Dengue NGC, 48 hours, 4.8% positive without treatment
Protocol: (§1) For compound testing, K562 infection system was used. […] The cell viability is measured by Celltiter Glo.
(§2) To determine the EC50 (effective concentration of 50% inhibition of virus growth) and the cytotoxity CC50 (concentration of 50% cell death), a dose response curve covering at least four different concentrations was done in K562 infection. The decrease of the percentage of the dengue positive cells was then plotted against the concentrations of inhibitors, using a nonlinear regression analysis to obtain the EC50. CC50 was calculated using the same method using the cell viability over the same range of inhibitor concentrations.

K562 cells = test: Cell viability of infected K562 cells by Celltiter Glo; assay type: cell-based, human; conditions: for CC50: K562 infection, same range of inhibitor concentrations, read-out: CC50 (concentration of 50% cell death)
Protocol: as §1, §2

[2] = as above; assay type: cell-based, human; conditions: human, K562 cells infected with dengue NGC virus, K562 infection, same range of inhibitor concentrations, read-out: CC50 (concentration of 50% cell death)
Protocol: as §1, §2

Dengue NGC virus [3] = test: Plaque assay of supernatant after K562 infection; assay type: cell-based; conditions: infected K562 cells, 48 hours, 0.1 μM and 10 μM
Protocol: The human lung-epithelial carcinoma A549 cell-line and hematopoetic cell line K562 are from ATCC and cultured according to instruction. PBMC (Peripheral Blood Mononuclear Cell) were prepared from buffy coat from healthy donors using ficoll gradient. The A549 dengue NGC replicon cells used for the work contains non-infectious, self replicating Dengue virus with a Renilla luciferase reporter under puromycin selection (24). Cells were cultured in F12 (Hams) medium (Invitrogen, Carlsbad, Calif.) supplemented with 10% fetal bovine serum (FBS) and puromycin (10-50 μg/ml). Cells were assayed in F12 medium supplement with 2% FBS without puromycin. Dengue NGC virus (GenBank number M29095) and the Malaysian clinical isolates MY10340 (from Shamala Devi, University of Malaya, Malaysia) were propagated in insect cells C6/36 (ATCC). For virus titer analysis, the level of live virus was determined by plaque assay in BHK-21 cells (ATCC) in triplicate.
as §1

dengue strain MY10340 [4] = test: Dengue infection of human PBMCs, FACS; assay type: cell-based, Dengue virus; conditions: human PBMC, two days, enhancing antibodies, increasing concentration
Protocol: as §1
Statins are a safe and widely used drug for the treatment of hypercholesterolemia (12). The toxicity observed in K562 cells could be due to the specific effect of Statins in a cancer cell line (1,22). For avoiding the toxicity in cancer or transformed cell lines, health donors' PBMC were collected, and tested the effect of statin in PBMC infection was tested. PBMCs were infected with a clinically isolated dengue strain MY10340 for two days in the presence of enhancing antibodies from dengue positive plasma. The infection was assessed by FACS and plaque assay as for K562 infection.

dengue strain MY10340 [5] = test: Live virus titer in PBMC infection by plaque assay; assay type: cell-based, Dengue virus; conditions: human PBMC, two days, increasing concentration
Protocol: PBMC (Peripheral Blood Mononuclear Cell) were prepared from buffy coat from healthy donors using ficoll gradient. […] For virus titer analysis, the level of live virus was determined by plaque assay in BHK-21 cells (ATCC) in triplicate.
For compound testing, K562 infection system was used. 50,000 K562 cells were plated in 96 well in 100 ul and infected the second day with 1 m.o.i of NGC virus for two days. Compounds were added together with the virus and the viral growth was measured by FACS with two antibodies, the anti-Dengue Envelope protein antibody (ATCC) (26) conjugated to Alexa 680 (Invitrogen) and the anti NS1 antibody (ATCC) conjugated to Alexa 488. The cell viability is measured by Celltiter Glo. The supernatant after infection were collected for plaque assay for live virus titer. For PBMC infection, conditions were the same as for K562 infection except 500,000 total cells were plated and an 1:10,000 diluted dengue IgG positive serum was added to the infection.

[6] = K562 cells, 1 m.o.i NGC virus, two days, decrease of percentage of dengue positive cells by FACS

Molecule	EC50 (Dengue NGC virus [1]; [6])	CC50 (K562 cells)	inhibition of viral growth / effect on infection (Dengue NGC virus [1])	CC50 at 2 days [2]	further results
CC(C)C[C@H](NC(=O)c1ccc(NCc2cnc[nH]2)cc1-c1cccc2ccccc12)C(=O)O [GGTI 2133]	> 50 µM	> 50 µM			
Hymeglusin	4.5 µM	~50 µM	significantly inhibited		
CC(C)n1c(/C=C/C(O)CC(O)CC(=O)O)c(-c2ccc(F)cc2)c2ccccc21 (stereo not drawn) [Fluvastatin]				48.8 µM	EC50 (Dengue NGC virus [1]; Dengue virus, K562, 48 h): > 50 µM
C=C(CC[C@]12O[C@H](C(=O)O)[C@@](O)(C(=O)O)[C@](C(=O)O)(O1)[C@H](OC(=O)/C=C/[C@@H](C)C[C@@H](C)CC)[C@H]2O)[C@@H](OC(C)=O)[C@H](C)Cc1ccccc1 [Zaragozic Acid, Zaragozic acid A]	8.3 µM	> 50 µM	significantly inhibited		percent Dengue positive cells (E and NS1 double positive) (Dengue NGC virus [1]; 0.1 μM ZGA): 2.8%; percent Dengue positive cells (E and NS1 double positive) (Dengue NGC virus [1]; 10 μM ZGA): 0.6%; effect on cell viability / cytotoxicity (K562 cells; K562 cells, dose range, 48 hours, listed as ZGA): no significant cytotoxicity; also recorded: no effect; fold less plaque than cells treated with DMSO alone (Dengue NGC virus [3]): 2-6 fold
CC[C@H](C)C(=O)O[C@H]1C[C@@H](C)C=C2C=C[C@H](C)[C@H](CC[C@@H]3C[C@@H](O)CC(=O)O3)[C@H]21 [Lovastatin]				46.8 µM	EC50 (Dengue NGC virus [1]; 48 h, K562 cells, 1 m.o.i NGC virus, two days, decrease of percentage of dengue positive cells by FACS): > 50 µM; percentage of infected cells (dengue strain MY10340 [4]): decreased; virus titer (dengue strain MY10340 [5]): decreased
